These results are taken from ChEMBL document CHEMBL2062432, “Design and synthesis of novel DFG-out RAF/vascular endothelial growth factor receptor 2 (VEGFR2) inhibitors: 2. Synthesis and characterization of a novel imide-type prodrug for improving oral absorption” (Bioorg Med Chem, 2012).

Data set [1] has as its target Serine/threonine-protein kinase B-raf (Homo sapiens, UniProt P15056, V600E). The data set can be described thus: Inhibition of BRAF V600E mutant.
The nature of data set [2]: Metabolic stability in human liver microsomes assessed as compound remaining at 30 uM after 60 mins by HPLC analysis. The data set is classed as ADME, Microsome. Conditions: read-out: Stability.
Data set [3] can be described thus: Thermodynamic solubility of the compound in JP2 solution at pH 6.8 in presence of 20 mM bile acid. It counts as physicochemical. The following applies: JP2 solution with 20 mM bile acid, read-out: Therm_solubility.
Another data set deals with Mus musculus. Put plainly: Inhibition of […] ERK1/2 phosphorylation in human A375 cells xenografted po dosed athymic nude F344/N […] administered as single dose after 4 hrs by immunoblotting. The following applies: A-375. It counts as functional, organism-based. (In general: A xenograft is tissue or cells of one species grown in another, often human tumour cells in immunodeficient mice.)

For a further data set, the system named is A-375. The data set can be described thus: Antitumor activity against human A375 cells xenografted in athymic nude F344/N jcl-rnu/rnu […] assessed as tumor regression at >32.3 mg/kg, po administered BID for 2 weeks measured on day 14 relative to control. It counts as functional, organism-based.

Serine/threonine-protein kinase B-raf, sequence (P15056 2-766 V600E limits assumed): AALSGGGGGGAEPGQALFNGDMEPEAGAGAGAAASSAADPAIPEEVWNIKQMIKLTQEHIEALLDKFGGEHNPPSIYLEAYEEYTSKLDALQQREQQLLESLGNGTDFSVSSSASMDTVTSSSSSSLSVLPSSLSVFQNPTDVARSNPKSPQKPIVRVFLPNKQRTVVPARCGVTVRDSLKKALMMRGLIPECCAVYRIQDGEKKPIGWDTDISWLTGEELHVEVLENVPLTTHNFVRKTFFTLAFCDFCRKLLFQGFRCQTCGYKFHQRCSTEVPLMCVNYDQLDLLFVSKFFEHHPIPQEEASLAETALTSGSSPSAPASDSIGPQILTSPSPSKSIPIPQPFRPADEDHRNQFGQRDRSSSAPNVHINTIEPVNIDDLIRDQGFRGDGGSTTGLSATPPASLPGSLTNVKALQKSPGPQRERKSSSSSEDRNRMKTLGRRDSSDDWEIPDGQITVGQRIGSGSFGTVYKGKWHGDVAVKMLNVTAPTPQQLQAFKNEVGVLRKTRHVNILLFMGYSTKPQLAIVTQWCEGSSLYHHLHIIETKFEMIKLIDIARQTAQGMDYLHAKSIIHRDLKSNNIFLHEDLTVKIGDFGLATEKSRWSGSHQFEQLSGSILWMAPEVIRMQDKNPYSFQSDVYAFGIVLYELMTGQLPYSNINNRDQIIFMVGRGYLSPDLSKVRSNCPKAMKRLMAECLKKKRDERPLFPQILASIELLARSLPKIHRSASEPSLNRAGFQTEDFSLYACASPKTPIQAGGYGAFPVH

What is called IC50 is the concentration that inhibits the measured activity by half. In the case of `CC(C)(C)OC(=O)Nc1cc(Oc2ccc3nc(NC(=O)C4CC4)sc3n2)ccc1F`, half-maximal inhibition in data set [1] (IC50) required 2000 nM. Regarding `CC(=O)Nc1nc2ccc(Oc3ccc(F)c(NC(=O)c4cccc(C5(C#N)CC5)c4Cl)c3)nc2s1`, in data set [2], the remaining at 1 h, 30 µM was determined as 78.5%. In the case of `CC(C)(C)OC(=O)N(C(=O)c1cccc(C2(C#N)CC2)c1Cl)c1cc(Oc2ccc3nc(NC(=O)C4CC4)sc3n2)ccc1F.CCO`, in data set [3], the solubility thermodynamic is 4.2 µg/mL.

`CC(C)(C)OC(=O)N(C(=O)c1cccc(C2(C#N)CC2)c1Cl)c1cc(Oc2ccc3nc(NC(=O)C4CC4)sc3n2)ccc1F`: the inhibition entry with Mus musculus was “Dose-dependent effect”. Further, in the data set with A-375, the Activity entry was “Dose-dependent effect”.
